Data: US20250206718A1, “NITROGEN-CONTAINING HETEROCYCLIC DERIVATIVE INHIBITOR, PREPARATION METHOD THEREFOR AND USE THEREOF” (SHANGHAI HANSOH BIOMEDICAL CO., LTD., priority 2022, published 2025)

Columns and labels:
[1] = biological target: Ba/F3 EGFR Del19/C797S cells (Homo sapiens, UniProt P00533, C797S, cells depend on it, form not given); experiment: Cell proliferation inhibition (Cell Titer-Glo), Ba/F3 EGFR Del19/C797S; assay type: cell-based, mouse; details: 72 hours, CellTiter-Glo, read-out: Ba/F3 EGFR Del19/C797S IC50
Ba/F3 EGFR Del19/C797S cells, sequence (P00533 with tags, fused parts or gaps DEL746-750/C797S, form open): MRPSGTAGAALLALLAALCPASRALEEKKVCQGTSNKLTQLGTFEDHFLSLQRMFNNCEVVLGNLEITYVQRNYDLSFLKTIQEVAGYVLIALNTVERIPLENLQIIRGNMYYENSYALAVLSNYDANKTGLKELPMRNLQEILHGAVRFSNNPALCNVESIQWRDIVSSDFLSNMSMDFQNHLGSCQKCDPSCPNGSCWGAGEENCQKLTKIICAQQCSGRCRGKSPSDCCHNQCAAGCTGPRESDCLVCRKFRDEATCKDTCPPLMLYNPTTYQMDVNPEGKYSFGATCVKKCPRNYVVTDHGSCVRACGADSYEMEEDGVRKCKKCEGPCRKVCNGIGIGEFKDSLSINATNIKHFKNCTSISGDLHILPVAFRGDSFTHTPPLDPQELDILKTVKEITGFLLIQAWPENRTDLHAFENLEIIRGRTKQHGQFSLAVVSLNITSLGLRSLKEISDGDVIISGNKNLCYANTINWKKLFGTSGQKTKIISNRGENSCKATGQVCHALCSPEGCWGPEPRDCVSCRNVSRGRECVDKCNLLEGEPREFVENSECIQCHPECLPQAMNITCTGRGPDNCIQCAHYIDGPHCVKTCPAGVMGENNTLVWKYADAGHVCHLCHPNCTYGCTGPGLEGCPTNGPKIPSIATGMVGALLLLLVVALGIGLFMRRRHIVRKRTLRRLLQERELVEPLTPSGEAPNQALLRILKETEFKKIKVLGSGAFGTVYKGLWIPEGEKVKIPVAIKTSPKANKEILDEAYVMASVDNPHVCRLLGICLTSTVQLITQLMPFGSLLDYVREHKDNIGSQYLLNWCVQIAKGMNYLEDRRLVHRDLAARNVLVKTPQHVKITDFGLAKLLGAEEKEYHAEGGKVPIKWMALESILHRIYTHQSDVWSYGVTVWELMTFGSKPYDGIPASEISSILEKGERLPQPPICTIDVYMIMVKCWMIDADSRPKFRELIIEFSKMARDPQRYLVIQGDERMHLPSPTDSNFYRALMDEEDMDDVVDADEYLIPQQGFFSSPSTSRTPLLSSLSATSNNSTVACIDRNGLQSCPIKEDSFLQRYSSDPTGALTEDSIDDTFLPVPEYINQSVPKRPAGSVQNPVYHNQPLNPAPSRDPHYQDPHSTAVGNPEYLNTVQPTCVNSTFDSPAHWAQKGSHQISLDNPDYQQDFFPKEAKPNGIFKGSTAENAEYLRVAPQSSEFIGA
Procedure, shortened: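 Ba/F3 lines carrying the EGFR mutants, grown in RPMI 1640 with 10% FBS, were seeded overnight then exposed to compound for 72 h at 37 °C, 5% CO2. Viability by CellTiter-Glo luminescence; IC50 from nonlinear regression of inhibition versus concentration.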

[2] = biological target: Ba/F3 EGFR Del19/T790M/C797S cells (Homo sapiens, UniProt P00533, T790M/C797S, cells depend on it, form not given); experiment: Cell proliferation inhibition (Cell Titer-Glo), Ba/F3 EGFR Del19/T790M/C797S; assay type: cell-based, mouse; details: 72 hours, CellTiter-Glo, read-out: Ba/F3 EGFR Del19_T790M_C797S IC50
Ba/F3 EGFR Del19/T790M/C797S cells, sequence (P00533 with tags, fused parts or gaps DEL746-750/T790M/C797S, form open): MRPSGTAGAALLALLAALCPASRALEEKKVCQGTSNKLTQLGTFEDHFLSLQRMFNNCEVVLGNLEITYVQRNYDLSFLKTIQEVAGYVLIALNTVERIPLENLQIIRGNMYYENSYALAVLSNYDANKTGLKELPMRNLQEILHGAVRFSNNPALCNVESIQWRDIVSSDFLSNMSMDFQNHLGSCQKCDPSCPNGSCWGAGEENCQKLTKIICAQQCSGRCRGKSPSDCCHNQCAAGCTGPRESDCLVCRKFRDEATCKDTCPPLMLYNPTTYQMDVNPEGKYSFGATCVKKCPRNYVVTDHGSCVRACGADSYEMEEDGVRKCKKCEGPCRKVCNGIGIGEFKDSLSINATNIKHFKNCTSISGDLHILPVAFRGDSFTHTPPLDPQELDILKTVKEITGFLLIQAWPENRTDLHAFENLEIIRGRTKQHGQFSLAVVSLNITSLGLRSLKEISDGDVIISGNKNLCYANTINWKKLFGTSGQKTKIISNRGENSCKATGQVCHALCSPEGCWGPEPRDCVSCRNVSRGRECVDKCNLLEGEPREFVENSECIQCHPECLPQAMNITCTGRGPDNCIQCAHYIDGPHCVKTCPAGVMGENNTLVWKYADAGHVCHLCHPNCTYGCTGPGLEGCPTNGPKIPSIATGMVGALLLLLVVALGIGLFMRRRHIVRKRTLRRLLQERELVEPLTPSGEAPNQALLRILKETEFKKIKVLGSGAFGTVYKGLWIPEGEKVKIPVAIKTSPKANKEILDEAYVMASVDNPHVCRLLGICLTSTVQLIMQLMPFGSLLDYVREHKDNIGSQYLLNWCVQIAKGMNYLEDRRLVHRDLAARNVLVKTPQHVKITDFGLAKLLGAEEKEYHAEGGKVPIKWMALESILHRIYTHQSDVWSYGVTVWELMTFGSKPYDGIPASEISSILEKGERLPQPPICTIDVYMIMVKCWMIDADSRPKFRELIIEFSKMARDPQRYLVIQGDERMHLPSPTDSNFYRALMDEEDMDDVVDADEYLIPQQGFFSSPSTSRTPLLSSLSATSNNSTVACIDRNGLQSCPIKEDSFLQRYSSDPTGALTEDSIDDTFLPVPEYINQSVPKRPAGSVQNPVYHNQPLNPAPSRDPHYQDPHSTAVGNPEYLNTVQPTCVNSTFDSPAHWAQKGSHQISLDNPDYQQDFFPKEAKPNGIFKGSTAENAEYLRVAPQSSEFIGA
Source text: (§1) Experimental objective: The objective of this test example is to test the inhibitory activity of compounds on the proliferation of different EGFR C797S drug-resistant mutant cell lines Ba/F3 EGFR Del19/T790M/C797S, Ba/F3 EGFR L858R/T790M/C797S, and Ba/F3 EGFR Del19/C797S.
(§2) • Ba/F3 EGFR Del19/T790M/C797S cells were purchased from KYinno Biotechnology Co., Ltd.; • Ba/F3 EGFR Del19/C797S cells were purchased from CoBioer Biosciences Co., Ltd.; • Ba/F3 EGFR L858R/T790M/C797S cells were purchased from CoBioer Biosciences Co., Ltd.; • Cell Titer-Glo was purchased from Promega, with a catalog number of G7573; • RPMI 1640 was purchased from Gibco, with a catalog number of 22400089; • FBS was purchased from Gibco, with a catalog number of 10091148; • cell culture plates were purchased from Corning, with a catalog number of 3610.
(§3) The inhibitory activity of the compound on the proliferation of different EGFR C797S drug-resistant mutant cell lines was detected using the Cell Titer-Glo method. The different cell lines were cultured in RPMI 1640 complete culture medium containing 10% FBS under conditions of 37° C. and 5% CO2, the cells were collected by centrifugation when growing to a certain density, and adjusted to appropriate cell density after counting, the cells were spread on a white 96-well plate at 90 μL/well, and cultured in a 37° C., 5% CO2 incubator overnight, prepared compound solutions of different concentrations were added at 10 μL/well, corresponding solvent controls were set, and all wells were cultured in a 37° C., 5% CO2 incubator for 72 hours, 50 μL of CellTiter-Glo solution was added to each well, shook and mixed evenly, and incubated in the dark for 10 minutes, and a BioTek Synergy H1 microplate reader was used for reading.
(§4) The luminescence signal value was used to calculate the inhibition rate. Graphpad Prism software was used to fit the concentration and inhibition rate to a nonlinear regression curve, so as to obtain the IC50 value, as shown in the Table below for details.

[3] = Rat pharmacokinetic evaluation test; assay type: in vivo; details: Sprague-Dawley (SD), po, SD rats, male, p.o. 5 mg/kg, plasma
Protocol: SD rats were used as test animals to study the pharmacokinetic behavior of the compounds of the present invention in the rat body (plasma) after oral administration at a dose of 5 mg/kg.
2.2 Experimental Animals: 3 SD Rats/Group, Male, from Shanghai Jiesijie Experimental Animal Co., Ltd., Animal Production License Number (SCXK (Shanghai) 2013-0006 No. 311620400001794).
• Oral administration drug preparation: 20% solutol HS15 in 0.5% MC (methylcellulose)
20 g of a Solutol HS15 solid and 0.5 g of a MC solid powder were weighed and dissolved in 80 mL of purified water, and the mixture was vortexed, mixed until uniform, and subjected to ultrasound treatment to obtain a clear solution of 20% solutol HS15 in 0.5% MC.
The example compound was weighed into a 20 mL glass bottle, the solution was added thereto and the mixture was subjected to ultrasound treatment for 10 minutes to obtain a clear solution with a concentration of 0.5 mg/mL.
3 male SD rats were administered p.o. respectively after the 3 male SD rats were fasted overnight; the p.o. dose was 5 mg/kg and the administration volume was 10 mL/kg.
Blood collection: Before and after administration to rats, 0.2 mL of blood was collected from the jugular vein at 0.25, 0.5, 1, 2, 4, 6, 8 and 24 h, and placed in an EDTA-K2 anticoagulation tube, which was centrifuged at 6000 rpm at 4° C. for 6 min to separate plasma which was stored at −80° C.; the rats were fed 4 h after administration.
1) 160 μL of acetonitrile was added to 40 μL of plasma sample for precipitation, mixed and centrifuged at 3500×g for 5 to 20 min.
2) the treated supernatant solution was taken and subjected to LC/MS/MS to analyze the concentrations of the test compounds. LC/MS/MS analysis instrument: AB Sciex API 4000 Qtrap.
• Liquid phase conditions: Shimadzu LC-20AD pump • Chromatographic column: Agilent ZORBAX XDB-C18 (50×2.1 mm, 3.5 μm) mobile phase: liquid A is 0.1% aqueous formic acid solution, liquid B is acetonitrile • Flow rate: 0.4 mL/min • Elution time: 0-4.0 min, the eluent is as follows:
The main pharmacokinetic parameters were calculated using WinNonlin 6.1.

[4] = biological target: Ba/F3 EGFR L858R/T790M/C797S cells (Homo sapiens, UniProt P00533, T790M/C797S/L858R, cells depend on it); experiment: Cell proliferation inhibition (Cell Titer-Glo), Ba/F3 EGFR L858R/T790M/C797S; assay type: cell-based, mouse; details: 72 hours, CellTiter-Glo, read-out: Ba/F3 EGFR L858R_T790M_C797S IC50
Ba/F3 EGFR L858R/T790M/C797S cells, sequence (P00533 whole entry T790M/C797S/L858R): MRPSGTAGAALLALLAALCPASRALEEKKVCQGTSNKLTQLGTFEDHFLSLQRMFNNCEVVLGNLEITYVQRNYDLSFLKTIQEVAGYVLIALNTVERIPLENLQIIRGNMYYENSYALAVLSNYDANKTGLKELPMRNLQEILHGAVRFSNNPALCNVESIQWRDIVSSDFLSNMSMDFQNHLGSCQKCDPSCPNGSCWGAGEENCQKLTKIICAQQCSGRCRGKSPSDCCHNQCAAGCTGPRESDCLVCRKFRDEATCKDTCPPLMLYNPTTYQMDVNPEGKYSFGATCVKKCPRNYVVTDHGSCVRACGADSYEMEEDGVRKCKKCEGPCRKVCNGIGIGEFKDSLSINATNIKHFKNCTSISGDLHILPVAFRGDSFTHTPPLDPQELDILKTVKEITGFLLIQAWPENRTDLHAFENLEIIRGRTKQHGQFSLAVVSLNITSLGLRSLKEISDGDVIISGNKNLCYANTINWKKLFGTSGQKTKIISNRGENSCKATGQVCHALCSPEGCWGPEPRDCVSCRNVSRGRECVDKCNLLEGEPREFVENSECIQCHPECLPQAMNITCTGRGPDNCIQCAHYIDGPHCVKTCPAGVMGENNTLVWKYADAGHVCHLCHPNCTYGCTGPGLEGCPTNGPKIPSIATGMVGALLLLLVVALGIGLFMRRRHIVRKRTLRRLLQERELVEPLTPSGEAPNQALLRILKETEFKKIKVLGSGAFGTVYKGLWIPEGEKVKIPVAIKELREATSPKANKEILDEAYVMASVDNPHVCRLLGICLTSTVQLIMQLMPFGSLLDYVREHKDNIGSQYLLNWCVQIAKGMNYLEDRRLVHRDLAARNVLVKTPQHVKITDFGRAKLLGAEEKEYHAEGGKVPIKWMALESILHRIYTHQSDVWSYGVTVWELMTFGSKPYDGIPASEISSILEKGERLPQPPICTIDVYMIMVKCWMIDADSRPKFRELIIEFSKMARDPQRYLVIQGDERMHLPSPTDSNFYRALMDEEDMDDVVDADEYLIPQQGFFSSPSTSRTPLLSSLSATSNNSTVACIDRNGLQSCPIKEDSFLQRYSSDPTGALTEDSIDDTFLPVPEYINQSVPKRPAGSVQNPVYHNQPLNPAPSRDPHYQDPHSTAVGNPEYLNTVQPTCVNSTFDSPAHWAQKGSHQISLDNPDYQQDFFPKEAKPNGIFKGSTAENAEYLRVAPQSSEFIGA
Source text: as §1, §2, §3, §4

SMILES | GI50 [1] | GI50 [2] | AUC(0-t) [3] | Cmax [3] | half-life [3] | GI50 [4]
CC(C)c1ccc(N2C[C@H](CS(C)(=O)=O)[C@H]2C)c2cnc(Nc3ccnc(-c4cn(C)nc4Cl)n3)cc12 [Example 5, N-(2-(3-chloro-1-methyl-1H-pyrazol-4-yl)pyrimidin-4-yl)-5-isopropyl-8-((2R,3S)-2-methyl-3-((methanesulfonyl)methyl)azabut-1-yl)isoquinolin-3-amine] | 5.1 nM | 3.7 nM | 1260 ng·h/mL | 239 ng/mL | 4.1 h | 11 nM
CC(C)c1ccc(N2C[C@H](N(C)S(C)(=O)=O)[C@H]2C)c2cnc(Nc3ccnc(-c4cn(C)nc4Cl)n3)cc12 [Example 122, N-((2R,3S)-1-(3-((2-(3-chloro-1-methyl-1H-pyrazol-4-yl)pyrimidin-4-yl)amino)-5-isopropylisoquinolin-8-yl)-2-methylazetidin-3-yl)-N-methyl methanesulfonamide] | 5.1 nM | 2.9 nM | 1260 ng·h/mL | 97 ng/mL | 3.5 h | 8.2 nM
CC(C)c1cnc(N2C[C@H](CS(C)(=O)=O)[C@H]2C)c2cnc(Nc3ccnc(-c4cn(C)nc4Cl)n3)cc12 [Example 132, N-(2-(3-chloro-1-methyl-1H-pyrazol-4-yl)pyrimidin-4-yl)-5-isopropyl-8-((2R,3S)-2-methyl-3-((methanesulfonyl)methyl)azetidin-1-yl)-2,7-diazanaphthalen-3-amine] | 6.4 nM | 5.6 nM | 1570 ng·h/mL | 180 ng/mL | 3 h | 15 nM
Cc1nn(C)cc1-c1nccc(Nc2cc3c(C(C)C)ccc(N4C[C@H](N(C)S(C)(=O)=O)[C@H]4C)c3cn2)n1 [Example 126, N-((2R,3S)-1-(3-((2-(1,3-dimethyl-1H-pyrazol-4-yl)pyrimidin-4-yl)amino)-5-isopropylisoquinolin-8-yl)-2-methylazetidin-3-yl)-N-methyl methanesulfonamide] | 3 nM | 2.1 nM | 3140 ng·h/mL | 240 ng/mL | 3.3 h | 7.5 nM
